# Tests used:
# SH5190 [1] = assay type: cell-based, A/Shanghai/5190/2013(H7N9)
# SH5190 [2] = assay type: cell-based, A/Shanghai/5190/2013(H7N9); remark: listed apart in the source
SMILES,plaque mean diameter (SH5190 [1]) [mm],times more potent than T-705 and ribavirin (SH5190 [2])
CCC(CC)O[C@@H]1C=C(C(=O)O)C[C@H](N)[C@H]1NC(C)=O [Oseltamivir carboxylate],< 0.1,–
"CC(=O)Oc1ccccc1C(=O)Nc1ncc([N+](=O)[O-])s1 [NT-300, nitazoxanide]",–,over 25 times

# Source: publication PMC4274890 (Emerging Microbes & Infections, 2014)
